Reference: patent publication US6884577B2, “Methods for screening compounds for estrogenic activity” (The Regents of the University of California, priority 1993, dated 2005)

How the values were obtained:
[1] = test system: ER at the AP1 site of the human collagenase promoter, ERC1 cells; test: Collagenase promoter-CAT reporters (Δcoll73, Δcoll60) in ERC1 cells; assay type: cell-based
Description: FIGS. 1A and 1B show estrogen stimulation mediated by an AP1 site in ERC1 cells (FIG. 1A) and F9 cells (FIG. 1B). Typical results of CAT assays, normalized for transfection efficiency, following a single transfection are shown opposite. Each point is the mean value of triplicate assays, with standard errors. CAT activities from cells maintained in the absence of hormone are shown as white bars, those in the presence of a saturating concentration (100 nM) of estradiol as black bars.
CAT assays were carried out as described in Webb et al., except that the cells were harvested one to two days after transfection instead of three. CAT activities were defined as the increase in cpm per hour at room temperature (corrected for background) per 100 μl of cell extract, normalized to production of 100 standard units of βHCG, from a co-transfected reporter gene, actin-HCG. Luciferase assays were performed as described by Brasier et al. Methods Enzymol 216:386-97 (1992)) on similar extracts that were used for CAT assays. Light units were defined as the luciferase activity per 100 μl of cell extract per 100 standard units of βHCG. Relative luciferase activities were calculated with respect to the results that were obtained in the absence of ER and hormone, which was set at 1 unit. For the data presented in Table I triplicate points were determined. Standard deviations were less than 20%. […]

[2] = test system: ER at the AP1 site of the collagenase promoter, F9 cells; test: Δcoll73 CAT reporter in F9 cells with transiently transfected ER; assay type: cell-based, human; details: no c-Jun/c-fos, FIG. 1B
From the text: Cells were maintained and transfected as previously described in Webb et al., supra. […] […] The cells were glycerol shocked and refed in growth medium containing hormone or ethanolic vehicle.

[3] = test system: human ER at the AP-1 site (collagenase promoter, AP-1-tk), HeLa cells; test: CAT assays of HeLa cells transfected with AP-1 site reporter genes and human ER expression vector; assay type: cell-based; details: transiently expressed human ER, FIG. 2A
Description: Representations, at left, show the human collagenase promoter (shaded) and the consensus AP-1 site. […] CAT activity is normalized to a transfection control with the actin promoter driving expression of βHCG. Single representative experiments are shown, error bars represent standard deviation of triplicate hormone treatments.
Cells were maintained and transfected as previously described in Webb et al., supra. […] F9 cells were seeded at 30% confluence upon 1.5 cm dishes and transfected overnight by calcium phosphate coprecipitation with 5 μg reporter gene, 1 μg actin β-HCG, and 1 μg of HEO, 300 ng each of c-jun and c-fos expression vectors. The cells were glycerol shocked and refed in growth medium containing hormone or ethanolic vehicle.
CAT assays were carried out as described in Webb et al., except that the cells were harvested one to two days after transfection instead of three. CAT activities were defined as the increase in cpm per hour at room temperature (corrected for background) per 100 μl of cell extract, normalized to production of 100 standard units of βHCG, from a co-transfected reporter gene, actin-HCG. […] Light units were defined as the luciferase activity per 100 μl of cell extract per 100 standard units of βHCG. Relative luciferase activities were calculated with respect to the results that were obtained in the absence of ER and hormone, which was set at 1 unit. For the data presented in Table I triplicate points were determined.
To further examine the effects of antiestrogens on the AP-1 directed pathway, reporter genes derived from the human collagenase promoter were transfected into HeLa cells.

ER at classical ERE = test: Reporter genes containing classical EREs (ERE-coll60, ERE-tk) in cells with ER; assay type: cell-based, human
Description: FIGS. 2A-2C show antiestrogen stimulation of expression in an intact AP-1 Site, but not at classical EREs. […] Representations, at left, show the human collagenase promoter (shaded) and the consensus AP-1 site. CAT activities were from cells maintained in the absence of hormone or saturating concentrations of ICI 164,384 (ICI, 1 μM), tamoxifen (5 μM) or estradiol ([…]). CAT activity is normalized to a transfection control with the actin promoter driving expression of βHCG. Single representative experiments are shown, error bars represent standard deviation of triplicate hormone treatments.
All reporter genes described below have been modified by digestion with EcoR I and Ndel to remove a AP-I site in the backbone of pUG. Thus, Coll73 and Coll60 are formerly_Coll73 and_Coll60 (Lopez et al. Mol. Cell. Biol. 13:3042-930 (1993)). Coll73-LUC was constructed by cloning a BamHI/Pvull fragment, that spanned the luciferase transcription unit, from pMG3 into coll73, which had been digested with BamHI and SmaI to remove the CAT transcription unit. EREcoll60 and EREcoll73 was prepared by ligation of a consensus ERE ([…], SEQ ID NO:3), into the HindIII site upstream of coll60 and coll73, respectively. All other reporter genes have been previously described (Webb et al. Mol. Endocrinol. 6:157-16725 (1992): and Lopez et al., supra).
Cells were maintained and transfected as previously described in Webb et al., supra. Hormones were added two hours after plating in the following concentrations, estradiol 100 nM, ICI 164,384 1 μM, tamoxifen 5 μM, to ensure saturation of the response. F9 cells were seeded at 30% confluence upon 1.5 cm dishes and transfected overnight by calcium phosphate coprecipitation with 5 μg reporter gene, 1 μg actin β-HCG, and 1 μg of HEO, 300 ng each of c-jun and c-fos expression vectors. The cells were glycerol shocked and refed in growth medium containing hormone or ethanolic vehicle. In transient transfections, optimal amounts of HEO were employed and were as follows: HeLa (5 μg); NIH3T3 (1 μg); HepG2 (1 μg); SHM (300 ng); SY5Y (300 ng); CEF (100 ng); CV-1 (3 μg); MDA453 (3 μg); CHO (100 ng) and F9 (1 μg).
CAT assays were carried out as described in Webb et al., except that the cells were harvested one to two days after transfection instead of three. CAT activities were defined as the increase in cpm per hour at room temperature (corrected for background) per 100 μl of cell extract, normalized to production of 100 standard units of βHCG, from a co-transfected reporter gene, actin-HCG. Luciferase assays were performed as described by Brasier et al. Methods Enzymol 216:386-97 (1992)) on similar extracts that were used for CAT assays. Light units were defined as the luciferase activity per 100 μl of cell extract per 100 standard units of βHCG. Relative luciferase activities were calculated with respect to the results that were obtained in the absence of ER and hormone, which was set at 1 unit. For the data presented in Table I triplicate points were determined. Standard deviations were less than 20%.
The activity of antiestrogens in the AP-1 pathway was also compared with their activity in the classical pathway. […] A promoter with both an ERE and an AP-1 site (ERE-coll73 FIG. 2C) gave a large estrogen response, but retained some response to antiestrogens. Another control reporter, in which the tk promoter was regulated by a classical ERE (ERE-tk FIG. 2C) was also activated by estrogen, but not by antiestrogens.

[4] = test system: CHO cells, which lack functioning ER; test: Negative control: estrogen-responsive reporter constructs in CHO cells which lack functioning ER; assay type: cell-based; details: same estrogen-responsive reporter constructs
From the text: To examine whether the series 4 compounds induce estrogenic activity through the ER, we tested the ability of ICI 164384 to inhibit the series 4 estrogenic activity. […] As a negative control, CHO cells, which lack functioning ER, were transfected with the same estrogen-responsive reporter constructs and treated with 17β-estradiol and the series 4 hydroxystilbenes.

`C[C@]12CC[C@@H]3c4ccc(O)cc4CC[C@H]3[C@@H]1CC[C@@H]2O` [estradiol, 17β-estradiol] was tested, and the “estrogen response of Δcoll60 (AP1 site removed)” value [1] was “no estrogen response”, the “stimulation of Δcoll73 (CAT)” value ([1]; 100 nM estradiol, FIG. 1A) was “ten fold” and the “estrogen response of Δcoll73” value [2] was “failed to respond”. For the same compound, the “activation of the collagenase promoter (coll517, coll73)” value [3] was “activated”, the “estrogen response of EREΔcoll60 (classical ERE substituted for AP1 site)” value (ER at classical ERE; ERC1 cells) was “restored estrogen response” and the “activation of ERE-tk” value (ER at classical ERE; HeLa cells, FIG. 2C) was “activated”. The “estrogenic activity in cells lacking functioning ER” value [4] was “no estrogenic activity”.
